{"source": "patent US20080171745A1", "about": "“METHODS RELATING TO THE TREATMENT OF FIBROSIS” (UNIVERSITY OF WASHINGTON, priority 2005, published 2008)", "key": {"C57/B16 mice": {"system": "C57/B16 mice", "experiment": "Bleomycin induced murine pulmonary fibrosis, lung sections stained with trichrome, body weight and survival", "type": "in vivo", "conditions": "for disease progression, as judged by reduced mortality, histopathology and endogenous gene expression: bleomycin murine model, 5 mg/Kg/day", "experimental": "Murine models of bleomycin induced fibrosis have been developed in order to study fibrotic disease progression.\nThere is an absence of airway epithelium in lower left compared to upper left (see arrow heads) and extensive collagen deposition (lower left). On the sixth day, either saline (upper right) or ICG-001 (5 mgs/Kg/day) was administered for 10 days after which the mice were sacrificed and sectioned. Of interest is the upper right (saline treatment) showing lack of normal airway epithelialization, extensive collagen deposition and intra-airway hypercellularity (fibroblasts and inflammatory influx)."}, "S100A4": {"system": "S100A4", "experiment": "RT-PCR in bleomycin treated mice", "type": "in vivo", "conditions": "5 mgs/Kg/day s.c."}, "collagen 1A2": {"system": "collagen 1A2", "experiment": "RT-PCR in bleomycin treated mice", "type": "in vivo", "conditions": "5 mgs/Kg/day s.c."}, "IPF patient fibroblasts": {"system": "IPF patient fibroblasts", "experiment": "IPF patient fibroblasts, Western blots on whole cell lysates", "type": "cell-based, human", "experimental": "Western blots for S100A4 (also know as FSP-1 or fibroblast specific protein-1) and E-Cadherin were performed on whole cell lysates."}, "[1]": {"conditions": "bleomycin 5 days, then 5 mgs/Kg/day for 10 days"}, "[2]": {"conditions": "RPMI 1640+10% FBS, 2 days, whole cell lysates"}}}
{"smiles": "O=C1[C@H](Cc2ccc(O)cc2)N2C(=O)CCN(C(=O)NCc3ccccc3)[C@H]2CN1Cc1cccc2ccccc12", "note": "[ICG-001]", "values": [{"measurement": "airway histology (epithelialization)", "setting": "C57/B16 mice; [1]", "value": "airway looks essentially normal"}, {"measurement": "body weight", "setting": "C57/B16 mice; [1]", "value": "regained normal body weight"}, {"measurement": "collagen levels (trichrome stain)", "setting": "C57/B16 mice; [1]", "value": "normal collagen levels"}, {"measurement": "survival", "setting": "C57/B16 mice; bleomycin 5 days, then 5 mgs/Kg/day for 10 days, untreated controls did not survive", "value": "survived"}, {"measurement": "disease progression, as judged by reduced mortality, histopathology and endogenous gene expression", "setting": "C57/B16 mice", "value": "not only halted but reversed disease progression"}, {"measurement": "disease progression, as judged by reduced mortality, histopathology and endogenous gene expression", "setting": "C57/B16 mice; listed as ICG-011, 5 mg/kg/day", "value": "not only halts but reverses disease progression"}, {"measurement": "S100A4 message (RT-PCR)", "setting": "S100A4", "value": "reduced essentially to negative control"}, {"measurement": "collagen 1A2 message (RT-PCR)", "setting": "collagen 1A2", "value": "reduced essentially to negative control"}, {"measurement": "S100A4 and E-cadherin expression at the mRNA level", "setting": "IPF patient fibroblasts; IPF patient fibroblasts", "value": "this is also true at the mRNA level"}, {"measurement": "E-Cadherin expression, Western blot", "setting": "IPF patient fibroblasts; [2]", "value": "increased E-Cadherin expression"}, {"measurement": "S100A4 (FSP-1) expression, Western blot", "setting": "IPF patient fibroblasts; [2]", "value": "decreased S100A4 expression"}]}
